Results from ChEMBL document CHEMBL2057108 (Bioorg Med Chem Lett, 2012).

Legend:
[1] = biological target: T1, 5-hydroxytryptamine receptor 4 (Homo sapiens, UniProt Q13639); experiment: Agonist activity at human 5HT4C receptor expressed at 100 fold physiological-level in HEK293 cells assessed as cAMP accumulation; assay type: functional, cell-based
[2] = species: Homo sapiens; experiment: Selectivity ratio of Ki for human 5HT3A receptor to Ki for human 5HT4C receptor
[3] = Permeability across human Caco2 cells; assay type: ADME, cell-based; conditions: Caco-2, read-out: Kp
[4] = biological target: hERG (KCNH2) (Homo sapiens, UniProt Q12809); experiment: Inhibition of human ERG expressed in CHO cells at 3 uM; assay type: cell-based; conditions: CHO cells expressing human ERG
Sequence of hERG (KCNH2) (Q12809 whole entry): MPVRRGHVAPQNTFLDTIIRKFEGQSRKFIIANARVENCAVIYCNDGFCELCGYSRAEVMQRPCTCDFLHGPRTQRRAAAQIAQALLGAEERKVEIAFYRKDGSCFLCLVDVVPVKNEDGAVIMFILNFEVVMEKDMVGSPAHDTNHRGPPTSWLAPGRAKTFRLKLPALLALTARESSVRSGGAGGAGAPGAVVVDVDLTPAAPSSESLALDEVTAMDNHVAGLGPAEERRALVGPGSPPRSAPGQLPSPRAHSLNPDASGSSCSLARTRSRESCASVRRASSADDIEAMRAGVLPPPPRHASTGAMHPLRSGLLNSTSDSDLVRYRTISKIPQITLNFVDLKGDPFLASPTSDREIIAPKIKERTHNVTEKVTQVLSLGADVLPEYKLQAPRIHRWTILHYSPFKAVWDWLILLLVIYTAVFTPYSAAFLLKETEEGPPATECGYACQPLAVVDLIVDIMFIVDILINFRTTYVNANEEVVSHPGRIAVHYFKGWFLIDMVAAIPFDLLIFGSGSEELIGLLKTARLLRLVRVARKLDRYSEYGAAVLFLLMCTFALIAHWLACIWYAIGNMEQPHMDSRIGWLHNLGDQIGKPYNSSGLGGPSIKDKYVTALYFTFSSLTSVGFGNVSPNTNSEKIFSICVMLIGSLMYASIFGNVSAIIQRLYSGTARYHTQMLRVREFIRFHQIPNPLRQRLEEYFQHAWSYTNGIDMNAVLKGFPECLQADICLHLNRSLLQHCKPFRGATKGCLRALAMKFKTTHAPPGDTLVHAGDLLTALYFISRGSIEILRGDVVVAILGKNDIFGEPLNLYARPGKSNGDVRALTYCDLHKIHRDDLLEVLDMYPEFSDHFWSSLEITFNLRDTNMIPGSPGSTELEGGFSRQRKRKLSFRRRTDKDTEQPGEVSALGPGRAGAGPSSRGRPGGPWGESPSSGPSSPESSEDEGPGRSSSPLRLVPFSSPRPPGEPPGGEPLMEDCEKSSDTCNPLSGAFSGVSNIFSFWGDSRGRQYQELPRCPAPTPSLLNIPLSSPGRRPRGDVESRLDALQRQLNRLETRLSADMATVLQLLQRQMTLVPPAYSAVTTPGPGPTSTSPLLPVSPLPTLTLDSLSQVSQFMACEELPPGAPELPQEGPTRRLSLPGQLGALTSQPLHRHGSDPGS

[5] = AUC (0 to t) in Sprague-Dawley rat at 5 mg/kg, po; assay type: ADME, organism-based; design: dose 5 mg/kg, route oral; conditions: plasma
[6] = Half life in Sprague-Dawley rat at 5 mg/kg, po; assay type: ADME, organism-based; design: dose 5 mg/kg, route oral; conditions: in vivo
[7] = Oral bioavailability in Sprague-Dawley rat at 5 mg/kg; assay type: ADME, organism-based; conditions: in vivo
[8] = biological target: T1, 5-hydroxytryptamine receptor 4; experiment: Intrinsic activity at human 5HT4C receptor expressed at 100 fold physiological-level in HEK293 cells assessed as cAMP accumulation relative to 5HT; assay type: functional, cell-based
[9] = Cmax in Sprague-Dawley rat at 5 mg/kg, po; assay type: ADME, organism-based; design: dose 5 mg/kg, route oral; conditions: in vivo
[10] = Half life in rat liver microsomes; assay type: ADME, Microsome; conditions: liver microsomes
[11] = biological target: T1, 5-hydroxytryptamine receptor 4; experiment: biochemical
Description: Displacement of [3H]GR113808 from human recombinant 5HT4C receptor expressed in HEK293 cells

T1 sequence (Q13639 whole entry): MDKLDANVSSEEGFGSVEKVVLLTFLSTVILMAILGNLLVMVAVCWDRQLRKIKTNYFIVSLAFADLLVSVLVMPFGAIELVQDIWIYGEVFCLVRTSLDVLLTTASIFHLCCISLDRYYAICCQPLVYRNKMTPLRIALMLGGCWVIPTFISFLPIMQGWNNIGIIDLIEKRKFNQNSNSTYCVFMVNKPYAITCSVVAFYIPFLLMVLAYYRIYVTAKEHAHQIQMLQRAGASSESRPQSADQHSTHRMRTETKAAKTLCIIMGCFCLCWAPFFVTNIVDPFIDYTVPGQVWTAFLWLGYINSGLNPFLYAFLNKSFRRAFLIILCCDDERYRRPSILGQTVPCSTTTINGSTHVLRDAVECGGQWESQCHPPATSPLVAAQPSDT

SMILES | EC50 [1] [nM] | Ratio Ki [2] | Papp [3] [×10⁻⁶ cm/s] | inhibition at 3 µM [4] [%] | AUC(0-t) [5] [ng·h/mL] | half-life [6] [h] | bioavailability [7] [%] | Intrinsic activity [8] [%] | Cmax [9] [ng/mL] | half-life [10] [h] | Ki [11] [nM]
CC(C)n1nc(C(=O)N[C@H]2C[C@H]3CC[C@@H](C2)N3CCN2CCN(S(C)(=O)=O)CC2)c2ccccc21 | 3.98 | 110 | 31 | 9 | 260 | 1.8 | 48 | 88 | 99 | > 1.5 | 12.6
CC(C)n1nc(C(=O)N[C@H]2C[C@H]3CC[C@@H](C2)N3CCCCCCN2CCC(CNS(C)(=O)=O)CC2)c2ccccc21 | 1.58 | 4.3 | – | – | – | – | – | 91 | – | – | 1.58
CC(C)n1nc(C(=O)N[C@H]2C[C@H]3CC[C@@H](C2)N3CC(O)CN2CCN(S(C)(=O)=O)CC2)c2ccccc21 (some centres not stated) | 0.794 | 7300 | 19 | 4 | – | – | – | 95 | – | > 1.5 | 3.98
CC(C)n1nc(C(=O)N[C@H]2C[C@H]3CC[C@@H](C2)N3CCCCCCN2CCCCC2)c2ccccc21 | 2.51 | 12 | – | – | – | – | – | 102 | – | – | 1
CC(C)n1nc(C(=O)N[C@H]2C[C@H]3CC[C@@H](C2)N3CC(O)CN2CCCCC2)c2ccccc21 (some centres not stated) | 2 | 13000 | 30 | 62 | – | – | – | 85 | – | > 1.5 | 2
CC(C)n1nc(C(=O)N[C@H]2C[C@H]3CC[C@@H](C2)N3)c2ccccc21 | – | < 1 | – | – | – | – | – | – | – | – | –
CC(C)N(C)CC(O)CN1[C@@H]2CC[C@H]1C[C@@H](NC(=O)c1nn(C(C)C)c3ccccc13)C2 (some centres not stated) | 5.01 | 6300 | 26 | 29 | – | – | – | 78 | – | > 1.5 | 3.98
COC[C@@H]1CCCN1CC(O)CN1[C@@H]2CC[C@H]1C[C@@H](NC(=O)c1nn(C(C)C)c3ccccc13)C2 (some centres not stated) | 2.51 | 3000 | 48 | 33 | – | – | – | 108 | – | 1.25 | 3.98
COC[C@@H]1CCCN1CCCCCCN1[C@@H]2CC[C@H]1C[C@@H](NC(=O)c1nn(C(C)C)c3ccccc13)C2 | 0.794 | 14 | – | – | – | – | – | 117 | – | – | 0.794
